“Also recorded” adds a separate entry of the source.
Tests used:
[1] = Survival of healthy BALB/C rats after i.p. administration; conditions: rat, in vivo, ip, 18 mg/kg, during the second week
Method: (§1) As in Example 1, VET liposomes of composition PL:PG:CHOL:DXR (50:50:50:15) and chroman 6 (7.5 mg) were prepared.
Inoculation by intraperitoneal route. Healthy BALB/C rats were treated intraperitoneally with said preparation, and the survival curves compared (FIG. 4) with the administration of free drug at the same dose, 18 mg/kg. In the experiment there was incorporated as a control a preparation of liposomes without drug, of identical characteristics and at the same lipidic concentration which would correspond to the liposomes with DXR.

[2] = Survival of healthy BALB/C rats after i.v. administration; conditions: rat, in vivo, iv, 16 mg/kg, during the second week
Method: as §1
Inoculation intravenously. Healthy BALB/C rats were treated intravenously with the preparation of L-DXR described and the survival curves compared (FIG. 5) with the administration of free drug of the same dose, 16 mg/kg. In the experiment there was incorporated as a control a preparation of liposomes without drug, of identical characteristics and at the same lipidic concentration which would correspond to the liposomes with DXR.

[3] = system: animals; conditions: literature; cited from earlier work
[4] = system: lipid peroxidation in rat liver microsomes (NADPH); assay: Inhibition of NADPH-induced (enzymatic) lipid peroxidation in rat liver microsomes, TBARS test; assay type: biochemical, Sprague-Dawley male rat; conditions: for IC50 / inhibition of lipid peroxidation, NADPH (in words): rat liver microsomes; for IC50: 0.1 mM NADPH, one hour at 37° C., read-out: IC50 TBARS production, NADPH
Method: (§2) Incubations. Suspension of Sprague-Dawley male rat liver microsomes in Krebs-Ringer (KRP) phosphates buffer, were prepared in accordance with the method of Fraga et al.: Free Radical Biol. Med. (1988) 4, 155-161. For the experiences of lipidic peroxidation induced enzymatically, microsomal protein (2 mg) in 1 ml of KRP buffer was incubated for one hour at 37° C. in the presence of 0.1 mM NADPH and 2 μl of DMSO containing the compound to be evaluated at the appropriate concentration. In the experiments where the incubations were prolonged up to three hours, every hour 0.1 ml of NADPH 2 mM was added to the incubation medium. For the experiments of lipid peroxidation induced chemically, 2 mg. of microsomal protein in 1 ml of KRP buffer were incubated for 30 min. at 37° C. in the presence of FeSO4 50/μM, ascorbic acid 0.5 mM and 2 μl of DMSO containing the compound to be evaluated at the appropriate concentration. In all cases, the incubations were arrested by addition of 0.2 ml of BHT at 4%.
(§3) TBARS test. […]. (1988) 4, 155-161 (herein incorporated by reference). Briefly, 0.5 ml of dodecyl sodium sulphate at 3% was added to proportions of 0.5 ml of the microsomal incubations. After mixing them, 2 ml of HC1 0.1 N, 0.3 ml of phosphotungstic acid and 1 ml of 2-thiobarbituric acid were added. The mixture was kept 30 min. at 100° C., and the TBARS were extracted with 3 ml of 1-butanol. After centrifugation, the fluorescence of the butanol phase was determined exciting at 515 nm and reading at 555 nm. The values obtained were expressed as nanomoles of TBARS (malondialdehyde equivalents). The standards of malondialdehyde were prepared from 1,1,3,3-tetramethoxypropane. The experiments were performed in triplicate. The values of […] were determined by representation of the percentage of inhibition vs. log [I], using at least five different concentrations. The values of the percentages of inhibition were referred to the determination carried out in presence of DMSO (2 μl).
(§4) In Table I the results of the inhibition of the lipidic peroxidation shown by several 2.2-dimethylchromans and chromans, fluorated or not, in incubations of rat liver microsomes induced by NADPH or stimulated by Fe-ascorbate, are shown, expressed as values of […] for the inhibition of the production of TBARS.

[5] = system: lipid peroxidation in rat liver microsomes (Fe-ascorbate); assay: Inhibition of Fe-ascorbate stimulated (chemical) lipid peroxidation in rat liver microsomes, TBARS test; assay type: biochemical, Sprague-Dawley male rat; conditions: for percentage of inhibition of TBARS production, Fe-ascorbate: at a 0.5 mM concentration; for inhibition of lipid peroxidation, Fe-ascorbate (in words) / IC50: rat liver microsomes; for effect with Fe-ascorbate compared with the tests depending on NADPH: Fe-ascorbate vs. NADPH; for IC50: FeSO4, ascorbic acid 0.5 mM, 30 min. at 37° C., read-out: IC50 TBARS production, Fe-ascorbate
Method: as §2, §3, §4

[6] = Encapsulation of DXR in liposomes (Sephadex G-50M); assay type: physicochemical; conditions: VET liposomes PL:PG:CHOL:DXR (50:50:50:15), anti-oxidant varied
Method: A chloroform solution was prepared containing the selected lipids (table II) and 7.5 mg. of the chroman 6 in a round-bottomed flask. Afterward proceeding to the elimination of the organic solvent by means of roto-evaporation, additionally the traces of solvent were eliminated by passage of N2 or by lyophilization. The lipidic film thus obtained was hydrated, with 3 ml of NaCl solution at 0.9% containing DXR, by agitation in a vibromixer at intervals of 30 sec., followed by resting in a bath maintained at 60° C. for the same amount of time and an effective agitation up to 10 min. Thus a liposomal dispersion was obtained containing preferably multilamelar vesicles (MLVs). The liposomal solution was sonicated by ultrasonic irradiation by means of a titanium probe until a change in the turbidity was observed. The protocol of sonication was carried out in relays of 2 min. of sonication and one minute resting under atmosphere of N2 in an ice water bath. In order to eliminate the particles of titanium produced during the sonication, it was centrifuged for 20 min. at 3000 rpm. The liposomal suspension thus obtained contained small unilamelar liposomes (SUVs).
Alternatively, the suspension of multilamelar liposomes obtained as described was submitted to extrusion through polycarbonate filters of 0.4 and 0.2 μm in diameter of pore subsequently, obtaining liposomes designated VET.
The determination of the percentage of encapsulation of DXR was done by chromatographic separation of a portion of the liposomal suspension, by means of Sephadex G-50M utilizing NaCl 0.9% as eluent.
Proceeding in a manner analogous to that described in EXAMPLE 2 to obtain VET liposomes utilizing a ratio by weight of PL:PG:CHOL:DXR of 50:50:50:15 and varying the anti-oxidant agent employed. The results obtained show (Table III) that no appreciable differences exist in the percentages of encapsulation when different inhibitors of the lipidic peroxidation were utilized.

[7] = system: rat liver microsomes; assay type: in vitro ADME, Sprague-Dawley male rat
[8] = system: lipid peroxidation in rat liver microsomes (NADPH); assay: Persistence of the inhibition of lipid peroxidation over three hours in rat liver microsomes with NADPH; assay type: biochemical, Sprague-Dawley male rat; conditions: compounds 5, 6, 8, 9 at 15, 1, 6, 5 μM
Method: FIG. 1 illustrates the formulas of the chromenes (1-4), chromans (5-9) and compound of reference, BHT, (10) studied as inhibitors of the lipidic peroxidation. […] The values shown are the average +/-SD of sextuplicate tieterminations that were performed. The difference between consecutive hours are marked by asterisks: * P<0.001, ** P<0.005.
as §2
TBARS test. When the incubations were completed, the lipid peroxidation was evaluated by means of the production of substances which react with thiobarbituric acid (TBARS) as Fraga et al described.: Free Radical Biol. Meal. (1988) 4, 155-161 (herein incorporated by reference). Briefly, 0.5 ml of dodecyl sodium sulphate at 3% was added to proportions of 0.5 ml of the microsomal incubations. […] After centrifugation, the fluorescence of the butanol phase was determined exciting at 515 nm and reading at 555 nm. The values obtained were expressed as nanomoles of TBARS (malondialdehyde equivalents). […] The values of […] were determined by representation of the percentage of inhibition vs. log [I], using at least five different concentrations. […]

| IC50 [4] [µM] | % encapsulation (Table III) [6] [%] | IC50 [5] [µM] | Compound | mortality [1] [%] | mortality [2] [%] | toxicity in animals (in words) [3] | percentage of inhibition of TBARS production, Fe-ascorbate [5] [%] | inhibition of lipid peroxidation, Fe-ascorbate (in words) [5] | effect with Fe-ascorbate compared with the tests depending on NADPH [5] | inhibition of lipid peroxidation, NADPH (in words) [4] | metabolite detected [7] | persistence of the inhibiting activity [8] | inhibiting activity compared with another compound, NADPH [4] | inhibiting activity compared with another compound, Fe-ascorbate [5] |
| --- | --- | --- | --- | --- | --- | --- | --- | --- | --- | --- | --- | --- | --- | --- |
| 1.4 | 85 | 3.8 | COc1cc2c(cc1O)C=CC(C)(C)O2 [compound 2] | – | – | – | – | potent inhibiting effect | six times smaller | – | – | – | – | – |
| 0.3 | 87 | 1.9 | COc1cc2c(cc1O)CCC(C)(C)O2 [compound 6] | – | – | – | – | potent inhibiting effect; also recorded: the greatest inhibiting power | six times smaller | – | – | – | an order of magnitude greater than that of the compound 7 | superior to that of the BHT; also recorded: an order of magnitude greater than that of the compound 7 |
| 3.4 | 88 | 19 | COc1cc2c(cc1O)OC(C)(C)CC2 [compound 7] | – | – | – | – | potent inhibiting effect | six times smaller | – | – | – | – | – |
| 0.8 | – | 2.7 | Cc1cc(C(C)(C)C)c(O)c(C(C)(C)C)c1 [compound 10, reference compound] | – | – | – | – | – | A similar relation | – | – | – | – | – |

Second part, the molecule before the results:

| Compound | IC50 [4] [µM] | % encapsulation (Table III) [6] [%] | IC50 [5] [µM] | mortality [1] [%] | mortality [2] [%] | toxicity in animals (in words) [3] | percentage of inhibition of TBARS production, Fe-ascorbate [5] [%] | inhibition of lipid peroxidation, Fe-ascorbate (in words) [5] | effect with Fe-ascorbate compared with the tests depending on NADPH [5] | inhibition of lipid peroxidation, NADPH (in words) [4] | metabolite detected [7] | persistence of the inhibiting activity [8] | inhibiting activity compared with another compound, NADPH [4] | inhibiting activity compared with another compound, Fe-ascorbate [5] |
| --- | --- | --- | --- | --- | --- | --- | --- | --- | --- | --- | --- | --- | --- | --- |
| COc1cccc2c1C(=O)c1c(O)c3c(c(O)c1C2=O)C[C@@](O)(C(=O)CO)C[C@@H]3O[C@H]1C[C@H](N)[C@H](O)[C@H](C)O1 [F-DXR] | – | – | – | 100 | 100 | cardiomyopathy | – | – | – | – | – | – | – | – |
| COc1cc2c(cc1OC)OC(C)(C)C=C2 [compound 1] | 11.4 | 89 | – | – | – | – | 35 | inactive | – | – | – | – | – | – |
| CC1(C)C=Cc2cc(O)c(OCC(F)(F)F)cc2O1 [compound 4] | 3.7 | 84 | 6 | – | – | – | – | – | – | the greatest inhibiting activity | detection as a metabolite in the incubations with NADPH | – | – | – |
| COc1cc2c(cc1OC)OC(C)(C)CC2 [compound 5] | 15 | 86 | – | – | – | – | 17 | inactive | – | – | – | remains constant; also recorded: anti-oxidant efficiency more metabolic-dependent | – | – |
| COc1cc2c(cc1OCC(F)(F)F)OC(C)(C)CC2 [compound 8] | 6 | 90 | – | – | – | – | 5 | does not present inhibiting activity per se | – | – | – | slightly higher during the second hour of incubation; also recorded: significant drop in the inhibiting activity during the third hour; also recorded: not significant when it is compared with the percentage of inhibition determined for the first hour of incubation (P>0.005); also recorded: anti-oxidant efficiency more metabolic-dependent | nine times greater than that corresponding to chromene 3 | – |
| CC1(C)CCc2cc(O)c(OCC(F)(F)F)cc2O1 [compound 9] | 3.9 | 83 | 5.3 | – | – | – | – | – | – | the highest inhibiting activity of the chroman fluorates tested | – | decreases during the second and the third hour of incubation; also recorded: less pronounced than that obtained for the compound 6; also recorded: more persistent intrinsic activity | – | slightly inferior to that shown by hydroxychroman 6 |
